Data as given in patent publication US10456443B2, “Peptidyl calcineurin inhibitors” (OHIO STATE INNOVATION FOUNDATION, priority 2014, dated 2019).
Non-standard residues stand in square brackets, D forms with d. Residues, ends and D or L forms follow the SMILES beside them. Tle = CC(C)(C)[C@H](N)C(=O)O

Assays:
calcineurin (CN) [1] = biological target: T1, calcineurin (CN) (Homo sapiens, UniProt Q08209)
calcineurin (CN) [2] = biological target: T1, calcineurin (CN); conditions: read-out: IC50, inhibition of the binding of FITC-ZIZIT to CN; FITC-ZIZIT 100 nM, CN 150 nM, unlabeled competing peptide 0-20 μM
macrophage cells = assay: Inflammatory cytokine production in macrophage cells with LPS stimulation; assay type: cell-based
[3] = tested on: HeLa cells stably transfected with GFP-NFAT; assay: GFP-NFAT translocation assay, live-cell confocal microscopy; conditions: 500 nM peptide, 2 h preincubation, 10 min ionomycin stimulation
[4] = Cellular uptake of cell penetrating peptides; assay type: cell-based; conditions: versus R11

T1 sequence (Q08209 2-347 limits assumed): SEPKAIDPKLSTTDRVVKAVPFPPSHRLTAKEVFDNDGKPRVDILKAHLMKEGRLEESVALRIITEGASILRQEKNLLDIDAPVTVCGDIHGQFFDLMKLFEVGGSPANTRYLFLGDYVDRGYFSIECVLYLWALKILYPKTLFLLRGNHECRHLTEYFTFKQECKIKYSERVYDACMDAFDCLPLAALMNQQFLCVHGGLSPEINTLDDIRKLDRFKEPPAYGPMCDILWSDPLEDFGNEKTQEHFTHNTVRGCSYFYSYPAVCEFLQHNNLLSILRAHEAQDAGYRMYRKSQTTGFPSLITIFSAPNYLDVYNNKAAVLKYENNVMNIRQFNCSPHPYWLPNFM

CC[C@H](C)[C@H](NC(=O)[C@@H](NC(=O)[C@@H](NC(=O)[C@@H](NC(=O)[C@@H]1CCCN1C(=O)[C@H](Cc1c[nH]cn1)NC(=O)[C@@H]1CCCN1C(=O)CN)C(C)(C)C)[C@@H](C)CC)C(C)(C)C)C(=O)N[C@H](C(=O)NCC(=O)N1CCC[C@H]1C(=O)N[C@@H](Cc1c[nH]cn1)C(=O)N[C@@H](CCC(=O)O)C(=O)N[C@@H](CCC(=O)O)C(N)=O)[C@@H](C)O [ZIZIT, GPHPZIZITGPHEE] (H-GPHP[Tle]I[Tle]ITGPHEE-NH2)
fold higher affinity for CN than VIVIT (calcineurin (CN) [1]; ZIZIT versus VIVIT): 10 fold | Kd (calcineurin (CN) [1]; read-out: KD against CN, FA assay, N-terminal 5(6)-SFX labeled peptides (100 nM)): 43 ± 12 nM | IC50 (calcineurin (CN) [2]): 280 ± 90 nM

Ac-RRRRRRRRRRRC-SPDP-GPHPZIZITG-Cys(Ψ^Me,MePro)-HEEG-Propyl [R11-ZIZIT-cisPro]
attenuating the production of inflammatory cytokines (macrophage cells; macrophages, 1 μM, compared with 50 μM R11-VIVIT): significantly more effective than 50 μM R11-VIVIT | fold more potent than R11-VIVIT in cellular assays (macrophage cells; versus R11-VIVIT): approximately 100 fold | inhibition of the nuclear translocation of GFP-NFAT [3]: ~95%

cyclo(fΦRrRrQ) [CP9]
fold more active than R11 for cellular uptake [4]: approximately 12 fold
